The values below come from ChEMBL document CHEMBL4610123, “Structure-Based Drug Discovery of N-((R)-3-(7-Methyl-1H-indazol-5-yl)-1-oxo-1-(((S)-1-oxo-3-(piperidin-4-yl)-1-(4-(pyridin-4-yl)piperazin-1-yl)propan-2-yl)amino)propan-2-yl)-2'-oxo-1',2'-dihydrospiro[piperidine-4,4'-pyrido[2,3-d][1,3]oxazine]-1-carboxamide (HTL22562): A Calcitonin Gene-Related …” (J Med Chem, 2020).

≈ marks a conversion by molar mass, not a printed value.

Series [1] in a line: Clearance in rat at 2 mg/kg, iv using 10% DMAC[…] Solutol HS15/80% saline formulation. The format is ADME, organism-based. To be noted: in vivo.
For series [2], the target named is T1, Calcitonin-gene-related peptide receptor, CALCRL/RAMP1 (Homo sapiens, UniProt O60894+Q16602). Kind of series: Antagonist activity at human CGRP receptor in human SK-N-MC cells assessed as inhibition of CGRP-induced cAMP production preincubated for 30 mins followed by CGRP addition and measured after 30 mins by HTRF assay. The format is functional, cell-based. (In general: Cyclic AMP is a second messenger, typically raised through Gs and lowered through Gi signalling.)

The nature of series [3]: Thermodynamic solubility of the compound at pH 6. Type of series: physicochemical. The conditions noted are these: buffer, read-out: Therm_solubility.
The nature of series [4]: Clearance in rat at 2 mg/kg, iv using 100% acidified saline formulation. Type of series: ADME, organism-based. To be noted: in vivo.
Series [5] deals with T1, Calcitonin-gene-related peptide receptor, CALCRL/RAMP1. Put plainly: Displacement of [3H]telcagepant from recombinant human CLR/RAMP1 expressed in Sf21 insect cell membranes measured after 60 mins by microbeta scintillation counting method. (Displacement assays read how much labelled ligand stays bound in the presence of the test substance.)
The nature of series [6]: Thermodynamic solubility of the compound at pH 7.4. The format is physicochemical. To be noted: buffer, read-out: Therm_solubility.
Series [7] in a line: Clearance in rat at 0.5 mg/kg, iv. Type of series: ADME, organism-based. The conditions noted are these: in vivo.

T1 sequence (O60894 whole entry): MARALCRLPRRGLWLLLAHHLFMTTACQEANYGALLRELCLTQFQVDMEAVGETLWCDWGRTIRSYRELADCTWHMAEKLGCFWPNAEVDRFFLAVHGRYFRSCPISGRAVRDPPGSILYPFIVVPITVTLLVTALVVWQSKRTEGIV
T1 sequence (Q16602 whole entry): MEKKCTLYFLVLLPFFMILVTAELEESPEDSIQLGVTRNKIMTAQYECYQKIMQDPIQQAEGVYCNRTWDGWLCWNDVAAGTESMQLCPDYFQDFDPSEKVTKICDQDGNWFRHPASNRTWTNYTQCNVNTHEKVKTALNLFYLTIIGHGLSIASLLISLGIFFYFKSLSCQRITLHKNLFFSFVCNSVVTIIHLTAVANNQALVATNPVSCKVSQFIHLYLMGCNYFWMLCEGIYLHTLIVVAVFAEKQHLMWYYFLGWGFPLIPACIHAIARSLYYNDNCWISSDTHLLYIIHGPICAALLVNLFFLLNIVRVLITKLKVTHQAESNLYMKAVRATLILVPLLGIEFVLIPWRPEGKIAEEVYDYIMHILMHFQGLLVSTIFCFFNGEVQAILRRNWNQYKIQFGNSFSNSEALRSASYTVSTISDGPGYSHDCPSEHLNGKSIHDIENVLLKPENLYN

In the case of `O=C(N[C@@H](CC1CCNCC1)C(=O)N1CCN(c2ccncc2)CC1)[C@@H](Cc1cc(Br)c(O)c(Br)c1)NC(=O)N1CCC(n2c(=O)[nH]c3ncccc32)CC1`, in series [1], the clearance amounted to 28 mL/min/kg. In addition, the pKb in series [2] was 10.8.

Regarding `Cc1cc(C[C@@H](NC(=O)N2CCC(n3c(=O)[nH]c4ncccc43)CC2)C(=O)N[C@@H](Cc2ccncc2)C(=O)N2CCN(c3ccncc3)CC2)cc2cn[nH]c12`, the solubility thermodynamic in series [3] turned out to be 1770 µM (≈ 1340 µg/mL); in series [6], 230 µM (≈ 174 µg/mL). In addition, the clearance in series [4] was 87 mL/min/kg. The Ki in series [5] was 0.1 nM. In series [2], the pKb is 10.

`Cc1cc(C[C@@H](NC(=O)N2CCC(n3c(=O)[nH]c4ncccc43)CC2)C(=O)N[C@@H](CC2CCNCC2)C(=O)N2CCN(c3ccncc3)CC2)cc2cn[nH]c12`: in series [7], the clearance was found to be 55 mL/min/kg.

With `Cc1cc(C[C@@H](NC(=O)N2CCC(n3c(=O)[nH]c4ncccc43)CC2)C(=O)N[C@@H](CCCCN)C(=O)N2CCN(c3ccncc3)CC2)cc2cn[nH]c12`, the Ki in series [5] is 0.0251 nM. The pKb in series [2] was 11.

On to `Cc1cc(C[C@@H](NC(=O)N2CCC(N3Cc4ccccc4NC3=O)CC2)C(=O)N[C@@H](CC2CCNCC2)C(=O)N2CCN(c3ccncc3)CC2)cc2cn[nH]c12`, for which the clearance in series [1] was found to be 6 mL/min/kg. Further, the pKb in series [2] was 10.1.

For the compound `Cc1cc(C[C@@H](NC(=O)N2CCC(c3cc4ccccc4[nH]c3=O)CC2)C(=O)N[C@@H](CC2CCNCC2)C(=O)N2CCN(c3ccncc3)CC2)cc2cn[nH]c12`, the solubility thermodynamic in series [3] stood at 10 µM (≈ 7.73 µg/mL). Further, the clearance in series [1] came to 31 mL/min/kg. Moreover, the pKb in series [2] was 9.8.

Regarding `O=C(N[C@@H](CC1CCNCC1)C(=O)N1CCN(c2ccncc2)CC1)[C@@H](Cc1cc(Br)c(O)c(Br)c1)NC(=O)N1CCC(N2Cc3ccccc3NC2=O)CC1`, the clearance in series [1] amounted to 21 mL/min/kg. Moreover, the pKb in series [2] was 11.2.

Regarding `NCCCC[C@H](NC(=O)[C@@H](Cc1cc(Br)c(O)c(Br)c1)NC(=O)N1CCC(N2Cc3ccccc3NC2=O)CC1)C(=O)N1CCN(c2ccncc2)CC1` [OLCEGEPANT], the clearance in series [1] was found to be 38 mL/min/kg. The pKb in series [2] was 11.2.

The term clearance denotes the volume of plasma or blood freed of the substance per unit of time. A higher clearance goes with a high capacity for elimination. What is called pKb is the Kb on a negative log10 scale, so that one unit is a factor of ten. What is called Ki is the dissociation constant of the complex between target and ligand, obtained from inhibition or displacement.
